Patent US8269019B2, “Inhibitors” (Probiodrug AG, priority 2010, dated 2012)

biological target: hQC (Homo sapiens, UniProt Q16769); assay: QC inhibitor assay (hQC inhibition, Ki and IC50); format: biochemical
Method: All measurements were performed with a BioAssay Reader HTS-7000Plus for microplates (Perkin Elmer) at 30° C. QC activity was evaluated fluorometrically using H-Gln-βNA. The samples consisted of 0.2 mM fluorogenic substrate, 0.25 U pyroglutamyl aminopeptidase (Unizyme, Hørsholm, Denmark) in 0.2 M Tris/HCl, pH 8.0 containing 20 mM EDTA and an appropriately diluted aliquot of QC in a final volume of 250 μl. Excitation/emission wavelengths were 320/410 nm. The assay reactions were initiated by addition of glutaminyl cyclase. QC activity was determined from a standard curve of β-naphthylamine under assay conditions. One unit is defined as the amount of QC catalyzing the formation of 1 μmol pGlu-βNA from H-Gln-βNA per minute under the described conditions.
In a second fluorometric assay, QC was activity determined using H-Gln-AMC as substrate. Reactions were carried out at 30° C. utilizing the NOVOStar reader for microplates (BMG labtechnologies). The samples consisted of varying concentrations of the fluorogenic substrate, 0.1 U pyroglutamyl aminopeptidase (Qiagen) in 0.05 M Tris/HCl, pH 8.0 containing 5 mM EDTA and an appropriately diluted aliquot of QC in a final volume of 250 μl. Excitation/emission wavelengths were 380/460 nm. The assay reactions were initiated by addition of glutaminyl cyclase. QC activity was determined from a standard curve of 7-amino-4-methylcoumarin under assay conditions. The kinetic data were evaluated using GraFit sofware.
This novel assay was used to determine the kinetic parameters for most of the QC substrates. QC activity was analyzed spectrophotometrically using a continuous method, that was derived by adapting a previous discontinuous assay (Bateman, R. C. J. 1989 J Neurosci Methods 30, 23-28) utilizing glutamate dehydrogenase as auxiliary enzyme. Samples consisted of the respective QC substrate, 0.3 mM NADH, 14 mM α-Ketoglutaric acid and 30 U/ml glutamate dehydrogenase in a final volume of 250 μl. Reactions were started by addition of QC and persued by monitoring of the decrease in absorbance at 340 nm for 8-15 min.
The initial velocities were evaluated and the enzymatic activity was determined from a standard curve of ammonia under assay conditions. All samples were measured at 30° C., using either the SPECTRAFIuor Plus or the Sunrise (both from TECAN) reader for microplates. Kinetic data was evaluated using GraFit software.
For inhibitor testing, the sample composition was the same as described above, except of the putative inhibitory compound added. For a rapid test of QC-inhibition, samples contained 4 mM of the respective inhibitor and a substrate concentration at 1 KM. For detailed investigations of the inhibition and determination of Ki-values, influence of the inhibitor on the auxiliary enzymes was investigated first. In every case, there was no influence on either enzyme detected, thus enabling the reliable determination of the QC inhibition. The inhibitory constant was evaluated by fitting the set of progress curves to the general equation for competitive inhibition using GraFit software.

Chain of hQC (Q16769 29-361): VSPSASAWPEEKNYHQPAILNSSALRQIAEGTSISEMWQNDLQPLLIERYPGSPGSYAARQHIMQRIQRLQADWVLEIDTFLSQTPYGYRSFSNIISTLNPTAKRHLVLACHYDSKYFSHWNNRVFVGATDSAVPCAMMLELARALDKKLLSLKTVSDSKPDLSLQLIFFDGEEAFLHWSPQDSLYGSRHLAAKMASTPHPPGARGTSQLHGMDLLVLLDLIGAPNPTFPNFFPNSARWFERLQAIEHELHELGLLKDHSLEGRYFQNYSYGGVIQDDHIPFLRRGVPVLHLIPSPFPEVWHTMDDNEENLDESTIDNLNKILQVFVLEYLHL

| Compound | IC50 [nM] | Ki [nM] |
| --- | --- | --- |
| COC1=C(C)[C@H](c2cccc(F)c2F)N(c2ccc3nc[nH]c3c2)C1=O (single isomer, unassigned) [Example 9] | 18.7 | 4.7 |
| COC1=C(C)C(C2CCC(c3ccccc3)CC2)N(c2ccc3nc[nH]c3c2)C1=O (stereo not drawn) [Example 32, 1-(1H-Benzo[d]imidazol-6-yl)-3-methoxy-4-methyl-5-(4-phenylcyclohexyl)-1H-pyrrol-2(5H)-one] | 821 | 164 |
| COC1=C(c2ccccc2)C(c2cc(F)cc(F)c2F)N(c2ccc3[nH]cnc3c2)C1=O (stereo not drawn) [Example 5, 1-(1H-Benzo[d]imidazol-5-yl)-5-(2,3,5-trifluorophenyl)-3-methoxy-4-phenyl-1H-pyrrol-2(5H)-one] | 317 | 54.9 |
| COC1=C(C)C(c2ccc(C3CCC(F)(F)CC3)cc2)N(c2ccc3nc[nH]c3c2)C1=O (stereo not drawn) [Example 26, 1-(1H-Benzo[d]imidazol-6-yl)-5-(4-(4,4-difluorocyclohexyl)phenyl)-3-methoxy-4-methyl-1H-pyrrol-2(5H)-one] | 292 | 36.2 |
| COC1=C(C)C(c2ccc(C3CCCCC3)cc2)N(c2ccc3nc[nH]c3c2)C1=O (stereo not drawn) [Example 25, 1-(1H-Benzo[d]imidazol-6-yl)-5-(4-cyclohexylphenyl)-3-methoxy-4-methyl-1H-pyrrol-2(5H)-one] | 195 | 45.3 |

Continued by falling IC50, values first:

| IC50 [nM] | Ki [nM] | Compound |
| --- | --- | --- |
| 557 | 46.6 | COC1=C(C)C(c2cccc(Cl)c2Cl)N(c2ccc3[nH]cnc3c2)C1=O (stereo not drawn) [Example 17, 1-(1H-Benzo[d]imidazol-6-yl)-5-(2,3-dichlorophenyl)-3-methoxy-4-methyl-1H-pyrrol-2(5H)-one] |
| 221 | 18.7 | COC1=C(C)C(c2ccc(C3CCC(N4CCOCC4)CC3)cc2)N(c2ccc3nc[nH]c3c2)C1=O (stereo not drawn) [Example 29, 1-(1H-Benzo[d]imidazol-6-yl)-3-methoxy-4-methyl-5-(4-(4-morpholinocyclo-hexyl)phenyl)-1H-pyrrol-2(5H)-one] |
| 169 | 32.3 | COC1=C(C)[C@@H](c2cccc(F)c2F)N(c2ccc3nc[nH]c3c2)C1=O (single isomer, unassigned) [Example 10] |
| 117 | 20.9 | COC1=C(C)C(c2cccc(F)c2F)N(c2ccc3nc[nH]c3c2)C1=O (stereo not drawn) [Example 8, 1-(1H-Benzo[d]imidazol-6-yl)-5-(2,3-difluorophenyl)-3-methoxy-4-methyl-1H-pyrrol-2(5H)-one] |
